Laboratory results taken from patent US11078221B2, “Phosphorodiamidates and other phosphorus derivatives of fingolimod and related S1P receptor modulators” (UNIVERSITY COLLEGE CARDIFF CONSULTANTS LTD, priority 2017, dated 2021).

Columns and labels:
[1] = system: NPC1 and −2; settings: mice, clinically relevant doses, cited from earlier work
[2] = system: human NPC1 mutant fibroblasts; settings: cited from earlier work
[3] = target: T1, Carboxypeptidase Y (Saccharomyces cerevisiae, UniProt P00729); assay: Carboxypeptidase Y experiment (31P NMR); type: in vitro ADME
T1 construct: purchased Aldrich
T1 sequence (P00729 112-532): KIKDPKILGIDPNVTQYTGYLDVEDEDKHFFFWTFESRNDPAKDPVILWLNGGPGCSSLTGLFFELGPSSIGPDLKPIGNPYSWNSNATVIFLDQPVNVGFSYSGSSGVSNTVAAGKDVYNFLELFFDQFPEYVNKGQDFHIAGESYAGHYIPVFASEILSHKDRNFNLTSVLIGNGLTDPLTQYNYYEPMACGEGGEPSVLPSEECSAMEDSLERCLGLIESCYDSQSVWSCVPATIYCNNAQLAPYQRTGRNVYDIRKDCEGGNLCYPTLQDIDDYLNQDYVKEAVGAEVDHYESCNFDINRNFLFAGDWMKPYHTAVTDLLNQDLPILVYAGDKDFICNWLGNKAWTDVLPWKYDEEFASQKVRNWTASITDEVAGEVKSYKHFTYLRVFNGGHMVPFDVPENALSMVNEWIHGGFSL
Procedure: Blank in acetone d6 alone (No trizma): 1-2 mg of pentyl (2S)-2-[({2-amino-3-hydroxy-2-[2-(4-octylphenethyl]propoxy}(4-methoxyphenoxy) phosphoryl)amino]propanoate is dissolved in 150 μL of acetone d6 and the solution transferred into an NMR tube. The ^31P spectrum is recorded (16 scans are sufficient).
The sample in the NMR tube is diluted with 100 μL of Trizma buffer (pH=7.6). 0.1 mg of Carboxypeptidase Y (Aldrich) is then dissolved in 150 μL of Trizma buffer and the resulting solution is added to the NMR tube. ^31P NMR spectra are then recorded (512 scans, 600 sec delay, 20 experiments.) FIG. 1

[4] = Human serum stability (31P NMR); type: in vitro ADME
[5] = B95a cell lysate experiment (31P NMR); type: in vitro ADME; settings: marmoset (cotton-top tamarin), B95a cell lysate; pH 7.6, 37 Celsius
Procedure: (§1) 4 mg of pentyl (2S)-2-[({2-amino-3-hydroxy-2-[2-(4-octylpheny)ethyl]propoxy}(4-methoxyphenoxy)phosphoryl)amino]propanoate are dissolved in a mixture of 150 μL of acetone d6 and 100 μL of trizma buffer (pH=7.6). The solution is transferred into an NMR tube. The ^31P spectrum is recorded (64 scans).
(§2) To the blank sample in the NMR tube 150 μL of B95a cell lysate (6.000.000 cell/m L) are added and then ^31P spectra are recorded at 37 Celsius (512 scans, 600 sec delay, 20 experiments).

[6] = system: B95a cell lysate; assay: B95a cell lysate experiment (31P NMR); type: in vitro ADME; settings: pH 7.6, 37 Celsius, FIG. 4
Procedure: as §1, §2

Compound | cholesterol ([1]; SphK2-dependent) | expression of NPC1 and −2 ([1]; brain and liver) | accumulation of cholesterol and glycosphingolipids [2] | expression of NPC1 and −2 [2] | activation of the prodrug by the esterase ([3]; acetone d6 / Trizma buffer, Carboxypeptidase Y, FIG. 1) | half-life ([3]; yeast (Saccharomyces cerevisiae), Carboxypeptidase Y in Trizma buffer / acetone d6, acetone d6 / Trizma buffer pH 7.6, read-out: half-life in the presence of Carboxypeptidase Y) | stability in human serum ([4]; DMSO d6 / Trizma buffer pH 7.6) | time over which the prodrug is stable in human serum ([4]; FIG. 3) | half-life at 10 mg/mL [5] | processing in B95a cell lysate [6]
CCCCCCCCc1ccc(CCC(N)(CO)CO)cc1 [FTY720, Fingolimod] | decreased cholesterol | increased expression of NPC1 and −2 in brain and liver | significantly reduced the accumulation of cholesterol and glycosphingolipids | greatly increased expression of NPC1 and −2 | – | – | – | – | – | –
CCCCCCCCc1ccc(CCC(N)(CO)COP(=O)(N[C@@H](C)C(=O)OCCCCC)Oc2ccc(OC)cc2)cc1 (stereo partly drawn) [pentyl (2S)-2-[({2-amino-3-hydroxy-2-[2-(4-octylphenyl)ethyl]propoxy}(4-methoxyphenoxy)phosphoryl)amino]propanoate] | – | – | – | – | rapidly activated by the esterase | 35.1 h | stable in human serum | at least 665 minutes | 11.1 h | processed to release the active monophosphorylated analogue
